Data as given in publication PMC6335172 (Acta Physiologica (Oxford, England), 2018).
Values joined by “and” are separate entries in the source; they are usually repeats but may differ in a detail not shown here. Equal entries are not always repeated. Where two headings read alike, the source gives them in different places.

Assays:
[1] = target: wild type human I Ks channel (Kv7.1/KCNE1) (Homo sapiens, UniProt P51787); assay: Two-electrode voltage clamp of I Ks channel; assay type: cell-based; details: pH 9.0, mean ± SEM; for Max ΔV 0.5 (shift of voltage dependence of activation) / Max I/I 0 (relative increase in K+ current at 0 mV) / Max G max/G max0 (maximal conductance normalized to control): fitted maximum from dose response; for Max ΔV 0.5 (shift of voltage dependence of activation): G-V from tail currents
Chain of wild type human I Ks channel (Kv7.1/KCNE1) (P51787 whole entry): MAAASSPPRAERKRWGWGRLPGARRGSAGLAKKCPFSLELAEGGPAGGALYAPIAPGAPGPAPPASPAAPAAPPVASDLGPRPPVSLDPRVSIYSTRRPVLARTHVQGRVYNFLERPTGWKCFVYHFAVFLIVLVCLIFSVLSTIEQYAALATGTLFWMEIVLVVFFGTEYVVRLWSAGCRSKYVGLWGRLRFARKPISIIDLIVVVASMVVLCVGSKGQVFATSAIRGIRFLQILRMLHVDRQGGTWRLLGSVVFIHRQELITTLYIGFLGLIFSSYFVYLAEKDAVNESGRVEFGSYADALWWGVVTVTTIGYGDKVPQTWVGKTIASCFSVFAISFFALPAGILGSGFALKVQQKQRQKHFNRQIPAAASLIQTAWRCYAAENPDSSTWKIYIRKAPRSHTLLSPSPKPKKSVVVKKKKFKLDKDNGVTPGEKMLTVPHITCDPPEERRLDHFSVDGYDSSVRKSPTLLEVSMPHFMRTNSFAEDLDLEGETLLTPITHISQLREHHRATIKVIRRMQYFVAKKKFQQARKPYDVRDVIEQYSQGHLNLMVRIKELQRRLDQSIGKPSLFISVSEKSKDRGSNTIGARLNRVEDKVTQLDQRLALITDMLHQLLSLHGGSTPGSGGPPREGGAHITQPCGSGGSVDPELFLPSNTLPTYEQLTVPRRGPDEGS

Kv7.1 channel = details: Kv7.1 without KCNE1; cited from earlier work
[2] = test system: I Ks channel (coexpression of Kv7.1 and KCNE1); details: cited from earlier work; for Effect on the V 0.5 of the I Ks channel at pH 7.5: Kv7.1 co-expressed with KCNE1, pH 7.5
[3] = read-out: K m of ΔV 0.5, Hill fit of dose response
[4] = K m of ΔV 0.5, Hill fit of dose response

SMILES | Max ΔV 0.5 (shift of voltage dependence of activation) [1] [mV] | Max I/I 0 (relative increase in K+ current at 0 mV) [1] | Max G max/G max0 (maximal conductance normalized to control) [1] | EC50 [1, 3] [µM] | EC50 [1, 4] [µM] | EC50 ([1]; read-out: K m of G max, Hill fit of dose response) [µM] | EC50 ([1]; K m of G max, Hill fit of dose response) [µM] | Shift of the voltage dependence of activation (V 0.5) of the Kv7.1 channel (Kv7.1 channel) | Effect on the V 0.5 of the I Ks channel at pH 7.5 [2] | Effect on K+ current when Kv7.1 is co-expressed with KCNE1, pH 7.5 ([2]; pH 7.5)
CCC=CCC=CCC=CCCCC(=O)O [14:3Δ5,8,11, Tetradecatrienoic acid (5,8,11)] | 0.80 ± 6.5 | 1.1 ± 0.15 | 0.84 ± 0.1 |  |  |  |  |  |  | 
CC/C=C\C/C=C\C/C=C\C/C=C\C/C=C\CCCC(=O)O [20:5Δ5,8,11,14,17, Eicosapentaenoic acid (5,8,11,14,17)] | −25 ± 4.6 | 2.4 ± 0.05 | 1.0 ± 0.1 |  | 9.8 ± 4.4 |  |  |  |  | 
CC/C=C\C/C=C\C/C=C\C/C=C\C/C=C\C/C=C\CCC(=O)O [22:6Δ4,7,10,13,16,19, Docosahexaenoic acid (4,7,10,13,16,19)] | −20.2 ± 0.1 | 3.2 ± 0.1 and 3.2 ± 0.01 | 1.5 ± 0.2 |  | 3.1 ± 0.1 |  | 1.8 | to more negative voltages | no effect on the V 0.5 | abolished
CCCCC/C=C\C/C=C\C/C=C\C/C=C\CCCC(=O)NCCS(=O)(=O)O [N‐AT, N‐arachidonoyl taurine] |  |  |  |  |  |  |  |  | retain the ability to shift the voltage dependence | 

Continued, in another order:

Max ΔV 0.5 (shift of voltage dependence of activation) [1] [mV] | Max I/I 0 (relative increase in K+ current at 0 mV) [1] | Max G max/G max0 (maximal conductance normalized to control) [1] | EC50 [1, 3] [µM] | EC50 [1, 4] [µM] | EC50 ([1]; read-out: K m of G max, Hill fit of dose response) [µM] | EC50 ([1]; K m of G max, Hill fit of dose response) [µM] | SMILES | Shift of the voltage dependence of activation (V 0.5) of the Kv7.1 channel (Kv7.1 channel) | Effect on the V 0.5 of the I Ks channel at pH 7.5 [2] | Effect on K+ current when Kv7.1 is co-expressed with KCNE1, pH 7.5 ([2]; pH 7.5)
−13.4 ± 0.6 | 2.1 ± 0.02 | 0.9 ± 0.2 | 7.2 ± 0.5 |  |  |  | CCC=CCC=CCC=CCCCCCC(=O)O [16:3Δ7,10,13, Hexadecatrienoic acid (7,10,13)] |  |  | 
−29.8 ± 1.7 | 3.6 ± 0.6 | 1.06 ± 0.02 |  |  |  |  | CCCCC/C=C\C/C=C\CCCCCCCC(=O)O [18:2Δ9,12, Linoleic acid (9,12)] |  |  | 
−4 ± 0.13 | 1.6 ± 0.05 | 1.2 ± 0.01 | 11.1 ± 0.6 |  | 1.2 ± 1.7 |  | CCC=CCC=CCC=CCC=CCC=CCCCCCC(=O)O [22:5Δ7,10,13,16,19, Docosapentaenoic acid (7,10,13,16,19)] |  |  | 
